# Reference: PMC6277767, “Broad and Region-Specific Impacts of the Synthetic Cannabinoid CP 55,940 in Adolescent and Adult Female Mouse Brains” (Frontiers in Molecular Neuroscience, 2018)
# Tested on: CD1 female mouse brain lipidome
# Experiment: Brain-region lipid levels (HPLC/MS/MS lipidomics) 2 h after single i.p. 3 mg/kg CP 55,940 vs vehicle
# Type: in vivo
# Set-up: N-arachidonoyl phenylalanine level, Mean / N-stearoyl tryptophan level, Mean / N-stearoyl proline level, Mean / N-stearoyl leucine level, Mean / N-stearoyl phenylalanine level, Mean / N-stearoyl serine level, Mean / N-stearoyl methionine level, Mean: unit: moles per gram
# Settings: hypothalamus
# Protocol: The Bloomington Institutional Animal Care and Use Committee of Indiana University reviewed and approved the animal procedures. Female mice from the CD1 strain were utilized to match our study examining THC’s effects on the brain lipidome ([Leishman et al., 2018]). Mice were given a single i.p. injection of either 3 mg/kg CP or 1:1:18 cremophor:ethanol:saline vehicle (please refer to the section “3 mg/kg CP Is Relevant for Synthetic Cannabinoid Abuse and Has Stronger Effects on the Female Mouse Brain Lipidome During Adolescence” for a justification of dose and use of female mice). Three different age groups were given injections: PND 35 and PND 50 adolescents, and adult mice (PND 113). At least eight mice in each age group received CP and at least eight received vehicle. Matching the THC study time course ([Leishman et al., 2018]), mice were sacrificed via rapid decapitation 2 h after injection. Brains were immediately removed and flash-frozen in liquid nitrogen, and then stored at -80°C until dissections were performed. Brains were dissected on an ice-cold dissection plate into the following regions: STR, HIPP, CER, THAL, CTX, HYP, MID, and STEM. These abbreviations for these brain areas will be used exclusively when discussing the results generated by these specific dissections. Each dissected area was immediately placed in liquid nitrogen and then stored at -80°C until used for lipid extraction.
# Tissue extracts were performed as previously described ([Bradshaw et al., 2006]; [Stuart et al., 2013]; [Raboune et al., 2014]; [Leishman et al., 2016a],[b], [2017], [2018]). First, samples were shock frozen in liquid nitrogen, weighed, and transferred to a centrifuge tube. The mass of the largest sample was multiplied by 50 to determine how many milliliters of HPLC-grade methanol (Fisher, Fair Lawn, NJ, United States) to add. Then, samples were spiked with 500 pmol deuterium-labeled NAGly (d8NAGly; Cayman Chemical, Ann Arbor, MI, United States). Samples were placed on ice in darkness for 2 h then individually homogenized and centrifuged at 19,000 × g for 20 min at 20°C. Supernatants were diluted with HPLC water (purified in house) to make a solution of 75% water, 25% supernatant. Lipids were partially purified on C18 solid phase extraction columns (Agilent, Palo Alto, CA, United States). A series of four elutions with 1.5 mL of 60%, 75%, 85%, and 100% methanol were collected ([Stuart et al., 2013]; [Leishman et al., 2016a],[b], [2018]).
# As previously described ([Bradshaw et al., 2006]; [Tan et al., 2006]; [Smoum et al., 2010]; [Stuart et al., 2013]; [Tortoriello et al., 2013]; [Raboune et al., 2014]; [Leishman et al., 2016a],[b], [2017], [2018]), samples were analyzed using an Applied Biosystems API 3000 triple quadrupole mass spectrometer with electrospray ionization (Foster City, CA, United States). Using an Agilent XDB-C18 reversed phase analytical column and optimized mobile phase gradients, 20 μL from each elution were chromatographed. Two Shimadzu 10ADvp pumps (Columbia, MD, United States) provided the pressure for gradient elution. Mobile phase A: 20% methanol, 80% water (v/v) and 1 mM ammonium acetate (Sigma, St. Louis, MO, United States). Mobile phase B: 100% methanol, 1 mM ammonium acetate. Every method run began with 0% mobile phase B, reached 100% mobile phase B flowing at 0.2 mL/min, and gradually returned to 0% mobile phase B.
# This screening library will be referred to as the lipidome when discussing data from this study. HPLC/MS/MS data were analyzed using Analyst software (Applied Biosystems) ([Bradshaw et al., 2006]; [Tan et al., 2006]; [Stuart et al., 2013]; [Tortoriello et al., 2013]; [Raboune et al., 2014]; [Leishman et al., 2016a],[b], [2017], [2018]). Chromatograms (Supplementary Figure 3) were generated by determining the retention time of analytes from the analytical column with a [M-1] or [M+1] parent peak and a fragmentation peak corresponding to the programmed values. […]
# [1] = PND 50 female mice, 3mg/kg CP 55,940
# [2] = PND 35 adolescent female mice, 3 mg/kg
smiles,measurement,setting,value
"CCCCCCC(C)(C)c1ccc([C@@H]2C[C@H](O)CC[C@H]2CCCO)c(O)c1 [CP 55,940]","N-docosahexaenoyl methionine level, Mean",[1],BDL
same,"N-docosahexaenoyl phenylalanine level, Mean",[1],PISSR
same,"N-docosahexaenoyl proline level, Mean",[1],BDL
same,"N-docosahexaenoyl serine level, Mean",[1],PISSR
same,"N-docosahexaenoyl tryptophan level, Mean",[1],BDL
same,"N-docosahexaenoyl tyrosine level, Mean",[1],BDL
same,"N-docosahexaenoyl valine level, Mean",[1],BDL
same,"N-linoleoyl GABA level, Mean",[1],PISSR
same,"N-linoleoyl alanine level, Mean",[1],3.81E-13
same,"N-linoleoyl ethanolamine level, Mean",[1],3.47E-11
same,"N-linoleoyl glycine level, Mean",[1],1.12E-13
same,"N-linoleoyl leucine level, Mean",[1],PISSR
same,"N-linoleoyl methionine level, Mean",[1],BDL
same,"N-linoleoyl phenylalanine level, Mean",[1],PISSR
same,"N-linoleoyl proline level, Mean",[1],BDL
same,"N-linoleoyl serine level, Mean",[1],1.7E-10
same,"N-linoleoyl tryptophan level, Mean",[1],BDL
same,"N-linoleoyl tyrosine level, Mean",[1],BDL
same,"N-linoleoyl valine level, Mean",[1],BDL
same,"N-nervonoyl valine level, Mean",[1],BDL
same,"N-oleoyl GABA level, Mean",[1],1.97E-12
same,"N-oleoyl alanine level, Mean",[1],2.61E-12
same,"N-oleoyl dopamine level, Mean",[1],BDL
same,"N-oleoyl ethanolamine level, Mean",[1],8.36E-11
same,"N-oleoyl glycine level, Mean",[1],5.38E-13
same,"N-oleoyl leucine level, Mean",[1],3.54E-13
same,"N-oleoyl methionine level, Mean",[1],PISSR
same,"N-oleoyl phenylalanine level, Mean",[1],6.88E-13
same,"N-oleoyl proline level, Mean",[1],BDL
same,"N-oleoyl serine level, Mean",[1],3.07E-10
same,"N-oleoyl tryptophan level, Mean",[1],BDL
same,"N-oleoyl tyrosine level, Mean",[1],1.89E-13
same,"N-oleoyl valine level, Mean",[1],PISSR
same,"N-palmitoyl GABA level, Mean",[1],6.6E-12
same,"N-palmitoyl alanine level, Mean",[1],6.9E-12
same,"N-palmitoyl ethanolamine level, Mean",[1],6.24E-11
same,"N-palmitoyl glycine level, Mean",[1],3.58E-12
same,"N-palmitoyl leucine level, Mean",[1],1.26E-12
same,"N-palmitoyl methionine level, Mean",[1],9.4E-13
same,"N-palmitoyl phenylalanine level, Mean",[1],1.3E-12
same,"N-palmitoyl proline level, Mean",[1],BDL
same,"N-palmitoyl serine level, Mean",[1],3.09E-11
same,"N-palmitoyl tryptophan level, Mean",[1],BDL
same,"N-palmitoyl tyrosine level, Mean",[1],4.12E-13
same,"N-palmitoyl valine level, Mean",[1],2.32E-13
same,"N-stearoyl GABA level, Mean",[1],7.69E-12
same,"N-stearoyl alanine level, Mean",[1],9.94E-13
same,"N-stearoyl ethanolamine level, Mean",[1],3.67E-11
same,"N-stearoyl glycine level, Mean",[1],5.58E-13
same,"N-stearoyl leucine level, Mean",[1],9.96E-13
same,"N-stearoyl methionine level, Mean",[1],5.57E-13
same,"N-stearoyl phenylalanine level, Mean",[1],1.28E-12
same,"N-stearoyl proline level, Mean",[1],BDL
same,"N-stearoyl serine level, Mean",[1],5.5E-11
same,"N-stearoyl tryptophan level, Mean",[1],BDL
same,"N-stearoyl tyrosine level, Mean",[1],1.01E-13
same,"Oleic acid level, Mean",[1],2.82E-10
same,"PGE2 level, Mean",[1],7.14E-11
same,"PhosphoLEA level, Mean",[1],1.12E-11
same,"THC level, Mean",[1],BDL
same,"2-arachidonoyl glycerol level, Mean",[2],6.64E-10
same,"2-linoleoyl glycerol level, Mean",[2],5.43E-11
same,"2-oleoyl glycerol level, Mean",[2],7.45E-10
same,"2-palmitoyl glycerol level, Mean",[2],7.93E-10
same,"6-ketoPGF1α level, Mean",[2],1.71E-11
same,"Arachidonic acid level, Mean",[2],3.33E-09
same,"Linoleic acid level, Mean",[2],2.5E-10
same,"N- stearoyl valine level, Mean",[2],1.41E-12
same,"N-arachidonoyl GABA level, Mean",[2],3.93E-11
same,"N-arachidonoyl alanine level, Mean",[2],5.15E-12
same,"N-arachidonoyl ethanolamine level, Mean",[2],5.6E-12
same,"N-arachidonoyl glycine level, Mean",[2],5.39E-12
same,"N-arachidonoyl phenylalanine level, Mean",[2],7.34E-13
same,"N-arachidonoyl taurine level, Mean",[2],1.56E-11
same,"N-docosahexaenoyl GABA level, Mean",[2],5.25E-12
same,"N-docosahexaenoyl ethanolamine level, Mean",[2],1.68E-11
same,"N-docosahexaenoyl glycine level, Mean",[2],4.59E-13
same,"N-linoleoyl alanine level, Mean",[2],4.26E-12
same,"N-linoleoyl ethanolamine level, Mean",[2],1.7E-11
same,"N-linoleoyl glycine level, Mean",[2],3.45E-13
same,"N-linoleoyl serine level, Mean",[2],6.26E-11
same,"N-oleoyl GABA level, Mean",[2],2.02E-11
same,"N-oleoyl alanine level, Mean",[2],1.14E-11
same,"N-oleoyl ethanolamine level, Mean",[2],1.79E-10
same,"N-oleoyl glycine level, Mean",[2],3.5E-12
same,"N-oleoyl leucine level, Mean",[2],3.49E-13
same,"N-oleoyl phenylalanine level, Mean",[2],1.8E-12
same,"N-oleoyl serine level, Mean",[2],2.72E-10
same,"N-oleoyl valine level, Mean",[2],3.31E-13
same,"N-palmitoyl GABA level, Mean",[2],3.44E-11
same,"N-palmitoyl alanine level, Mean",[2],3.03E-11
same,"N-palmitoyl ethanolamine level, Mean",[2],4.49E-11
same,"N-palmitoyl glycine level, Mean",[2],1.16E-11
same,"N-palmitoyl leucine level, Mean",[2],2.12E-12
same,"N-palmitoyl methionine level, Mean",[2],5.5E-12
same,"N-palmitoyl phenylalanine level, Mean",[2],4.4E-12
same,"N-palmitoyl serine level, Mean",[2],1.07E-11
same,"N-palmitoyl tyrosine level, Mean",[2],1.52E-12
same,"N-palmitoyl valine level, Mean",[2],1.65E-12
same,"N-stearoyl GABA level, Mean",[2],3.84E-11
same,"N-stearoyl alanine level, Mean",[2],1.89E-11
same,"N-stearoyl ethanolamine level, Mean",[2],3.64E-11
same,"N-stearoyl glycine level, Mean",[2],8.37E-12
